{"source": "patent US5075499A", "about": "“Calcium supplementation by dicalcium citrate-lactate” (Board of Regents, The University of Texas System, priority 1988, dated 1991)", "key": {"[1]": {"conditions": "cited from earlier work"}, "[2]": {"conditions": "cited from earlier work; for effectiveness in raising urinary citrate compared with tricalcium dicitrate: vs tricalcium dicitrate"}, "[3]": {"experiment": "Calcium absorption from oral tablets (increment in urinary calcium during the second two hours, Example 5)", "conditions": "400 mg elemental calcium, ten normal volunteers, SD", "experimental": "Calcium absorption was measured from the increment in urinary calcium during the second two hours following the administration of the oral calcium tablets.\nThe calcium absorption was measured from the increment in urinary calcium during the second two hours following oral calcium load, expressed as mg calcium/dl glomerular filtrate (GF)."}, "[4]": {"conditions": "osteoporosis prone postmenopausal women; cited from earlier work"}, "[5]": {"conditions": "cited from earlier work", "remark": "listed apart in the source"}, "[6]": {"experiment": "Bulk density of the dried granular composition", "format": "physicochemical", "protocol": "38.4 grams of citric acid powder and 40 grams of calcium carbonate were thoroughly mixed in a large beaker. 36 grams of lactic acid, 50 weight percent solution, was slowly added with rapid stirring. 40 grams of water was then introduced slowly in small portions, each portion was added after the CO2 evolution slowed or ceased. After drying, the material was sized and found to have a bulk density greater than 1.1 g/cc. Bulk density was determined by an Archimedean method. This dense granular dicalcium citrate-lactate was subjected to compression tableting to form tablets containing 10 meq (200 milligrams) of calcium, and 7.5 meq (472 milligrams) of citrate, with a size of 0.29 (7.47 millimeters) inch by 0.74 (1.9 centimeters) inch.\nThe dicalcium citrate-lactate tablets of the present invention were also produced on a large scale. 38.4 kilograms of citric acid powder and calcium carbonate were placed in a Colton 7 cubic ft. ribbon mixer and blended for 2 minutes. Thirty six kilograms of the lactic acid, 50 weight percent solution, were added in approximately three equal portions, 3 minutes apart with continuous mixing. Water (40 kilograms) was added in approximately four equal portions 2-3 minutes apart with continuous mixing. Mixing continued for 10 minutes. The resultant granular and lumpy material was passed through a Fitzmill, knives forward, with no screen, trayed and dried at 212° F.-221° F. (100° C.-105° C.) for three hours. The dried product was sized and its bulk density was determined to be greater than 1.1 g/cc. The sizing was done using a Fitzmill Model No. 6 with a 31262AA screen.\nThe procedure previously described in Example 2 was followed with the exception of calcium carbonate being replaced by calcium oxide. Dicalcium citrate-lactate having a bulk density of greater than 0.7 g/cc was produced.\nThe procedure previously described in Example 2 was followed with the exception of calcium carbonate being replaced by calcium hydroxide. Calcium citrate lactate having a bulk density of greater than 0.8 g/cc was produced."}}}
{"compound": "O=C(O)CC(O)(CC(=O)O)C(=O)O", "note": "[tricalcium dicitrate]", "values": [{"measurement": "precipitation out of simulated duodenal juice", "setting": "[1]", "value": "did not precipitate out of simulated duodenal juice"}, {"measurement": "urinary citrate", "setting": "[2]; Harvey, Zobitz and Pak 1985", "value": "increased urinary citrate"}, {"measurement": "calcium absorption (increment in urinary calcium)", "setting": "[3]", "value": "0.044±0.051", "unit": "mg/dl GF"}]}
{"compound": "estrogen", "values": [{"measurement": "prevention of further bone losses", "setting": "[4]", "value": "further bone losses in osteoporosis prone postmenopausal women may be prevented"}]}
{"compound": "O=C(O)[C@H](O)[C@@H](O)[C@H](O)[C@H](O)CO", "note": "[calcium gluconate]", "values": [{"measurement": "effectiveness in raising urinary citrate compared with tricalcium dicitrate", "setting": "[2]", "value": "not as effective as tricalcium dicitrate"}, {"measurement": "aqueous solubility", "setting": "[5]", "value": "high aqueous solubility"}]}
{"compound": "CC(O)C(=O)O", "note": "(stereo not drawn) [calcium lactate]", "values": [{"measurement": "effectiveness in raising urinary citrate compared with tricalcium dicitrate", "setting": "[2]", "value": "not as effective as tricalcium dicitrate"}]}
{"compound": "CC(O)C(=O)[O-].O=C([O-])CC(O)(CC(=O)[O-])C(=O)[O-].[Ca+2].[Ca+2]", "note": "[dicalcium citrate-lactate]", "values": [{"measurement": "bulk density", "setting": "[6]; from calcium carbonate, large batch (Example 2)", "value": "greater than 1.1 g/cc"}, {"measurement": "bulk density", "setting": "[6]; from calcium carbonate, small batch (Example 1), Archimedean method", "value": "greater than 1.1 g/cc"}, {"measurement": "bulk density", "setting": "[6]; from calcium hydroxide, large batch (Example 4)", "value": "greater than 0.8 g/cc"}, {"measurement": "bulk density", "setting": "[6]; from calcium oxide, large batch (Example 3)", "value": "greater than 0.7 g/cc"}]}
{"compound": "O=C(O)O", "note": "[calcium carbonate]", "values": [{"measurement": "prevention of further bone losses", "setting": "[4]", "value": "to a lesser extent"}]}
